As a reminder, the IC50 is the point on the concentration scale where inhibition reaches its midpoint. A higher IC50 goes with weaker potency.

Consider eleven molecules from publication PMC6017290, “Oleanolic Acid-amino Acids Derivatives: Design, Synthesis, and Hepatoprotective Evaluation In Vitro and In Vivo” (Molecules : A Journal of Synthetic Chemistry and Natural …, 2018).

One assay deals with L02. As to the kind of experiment: MTT cell viability assay, L02 normal liver cell. The assay is classed as cell-based. The settings on record: Homo sapiens, 72 h, mean ± SD of three experiments. On the procedure:
(§1) Cell viability was evaluated using an MTT assay. HSCs, HepG2, Bel-7402, and L02 cells were seeded, respectively, in 96-well plates at a density of 3 × 10^3 cells per-well and stabilized at 37 °C for 24 h in a humidified atmosphere with 5% CO2. The growing cells were exposed to various concentrations of the tested drugs and incubated for 72 h (37 °C, 5% CO2). The MTT solution (20 μL, 5 mg/mL) was added to each well and incubated for 4 h. After removing the media, formazan crystals were dissolved with DMSO (150 μL). After shaking for 10 min, the absorbance was quantified at 490 nm. Wells containing no drugs were used as blanks. The IC50 values were defined as the concentration of compounds that produced a 50% reduction of surviving cells and were calculated using the Logit-method. The inhibitory rate was calculated in the following Equation (1): Inhibition rate (%) = (1 − OD Sample group/OD Control group) × 100%(1)
(In general: Formazan colour is commonly taken as a measure of viable cells.)

The next assay concerns Bel-7402. Briefly: MTT cell viability assay, Bel-7402. It counts as cell-based. The note with it: Homo sapiens, 72 h, mean ± SD of three experiments. On the procedure: as §1
The next assay relates to HepG2. Briefly: MTT cell viability assay, HepG2. The assay is classed as cell-based. The settings on record: Homo sapiens, 72 h, mean ± SD of three experiments. On the procedure:
as §1

Assay [1] has as its system HSCs. Briefly: MTT cell viability assay, HSCs. It counts as cell-based. The note with it: 72 h, mean ± SD of three experiments. Here is the method: as §1
Assay [2] concerns CCl4 acute liver injury mice model. Briefly: CCl4 acute liver injury mice model (HE staining, serum ALT and AST). The assay is classed as in vivo. The note with it: 20 mg/kg intragastric, 8 days, CCl4 i.p., 16 h after injury; for activity of ALT in serum / activity of AST in serum: vs model group. On the procedure:
The twelve mice were randomly divided into the control group, model group, administration of OA group, and administration of 3g group. In the administration of OA and 3g group, the mice were fed with OA and 3g suspension with 0.5% CMC-Na at a dose of 20 mg/kg body weight. The control group and model group were intragastrically administered with equal volume of 0.5% CMC-Na; during administration for 8 days, the general activity, fur, and feces of mice were observed daily. After administration for 1 h on the 8th day, the other groups were intraperitoneally injected with 10mL/kg 0.2% of the carbon tetrachloride (CCl4) olive oil solution, while the control group was intraperitoneally injected with olive oil solution. After 16 h of injury, the serum was prepared by centrifugation at 3000 rpm by orbital blood. The ability of ALT and AST was measured according to the instructions of the assay kit. The liver tissues of each group were taken out and the morphological differences were observed. The large lobe of liver was taken for pathological examination with HE staining under an optical microscope (×100).

For assay [3], the system named is HSCs. As to the kind of experiment: Giemsa staining and DAPI staining, morphological changes. It counts as cell-based. The settings on record: 1.5, 3.0, 6.0 µM, 72 h. On the procedure:
HSCs cells in logarithmic growth phase were cultured in 6-well plates at a density of 3 × 10^4 cells/mL for 24 h at 37 °C in a humidified atmosphere with 5% CO2. Then, each group was treated with 3g at various concentrations (0, 1.5, 3.0, and 6.0 µM) for 72 h. The cell culture medium was discarded. Additionally, the cells were washed twice with PBS, kept in PBS/ethanol (1:1) for 2 min, and fixated in ethanol for 10 min. After removing the ethanol, the cells were stained with giemsa staining for 2 min and observed under inverted phase-contrast microscope at a magnification of 400×.
HSCs cells in logarithmic growth phase were cultured in 6-well plates at a density of 3 × 10^4 cells/mL for 24 h at 37 °C in a humidified atmosphere with 5% CO2. Additionally, each group was treated with different concentrations of 3g (0, 1.5, 3.0, and 6.0 µM) for 72 h. Cell culture medium was discarded, and the cells were washed twice with PBS. The cells were fixed with 4% paraformaldehyde (pH 7.4) for 15 min and then washed twice with PBS. With an excitation wavelength of […], 4′,6-diamidino-2-phenylindole (DAPI) staining was then performed for 2 min, and nuclear fragments were observed using inverted phase-contrast microscope at a magnification of 400×.

Assay [4] relates to HSCs. As to the kind of experiment: Annexin V-FITC/PI staining apoptosis assay (flow cytometry). The assay is classed as cell-based. The settings on record: 72 h, control cells 15.1%. On the procedure:
HSCs cells in logarithmic growth phase were cultured in 6-well plates at a density of 3 × 10^4 cells/mL for 24 h at 37 °C in a humidified atmosphere with 5% CO2. HSCs cells were treated with 3g at various concentrations (0, 1.5, 3.0, and 6.0 µM) for 72 h. Then, cells were collected, washed with annexin-binding buffer, and stained with annexin V-FITC and PI for 15 min in the dark. After that, the samples were analyzed by flow cytometry (BD FACSCalibur, San Jose, CA, USA).
In general terms: A flow cytometer gives signals particle by particle.

Assay [5] concerns HSCs. As to the kind of experiment: Intracellular free Ca2+ levels assay (Fluo-3AM, flow cytometry). The assay is classed as cell-based. The note with it: 1.5, 3.0, 6.0 µM, 72 h. On the procedure:
HSCs cells in logarithmic growth phase were cultured in 6-well plates at a density of 3 × 10^4 cells/mL for 24 h at 37 °C in incubator with 5% CO2. After treatment with different concentrations of 3g (0, 1.5, 3.0, and 6.0 μM) for 72 h, cells were collected and washed twice with cold PBS, then resuspended in HBSS buffer with 10 μM Fluo-3AM and incubated for 30 min at 37 °C in the dark. Intracellular Ca^2+ levels were analyzed by the flow cytometer at 488 nm excitation wavelength.

The subject of assay [6] is HSCs. As to the kind of experiment: Mitochondrial membrane potential assay (Rh123, flow cytometry). The assay is classed as cell-based. The settings on record: 1.5, 3.0, 6.0 µM, 72 h. Here is the method:
HSCs cells in logarithmic growth phase were seeded in 6-well culture plate at a density of 3 × 10^4 cells/mL for 24 h at 37 °C in incubator with 5% CO2. After treatment with different concentrations of 3g (0, 1.5, 3.0, and 6.0 μM) for 72 h, cells were collected and washed twice in cold PBS, then resuspended in 1 mL cell culture medium with Rh123 (10 μg/mL) and incubated for 30 min at 37 °C. After being washed twice with cold PBS, cells were immediately analyzed by the flow cytometer at 488 nm excitation wavelength.

Bounds are passed on as bounds.

With `CC1(C)CC[C@]2(C(=O)O)CC[C@]3(C)C(=CC[C@@H]4[C@@]5(C)CC[C@H](O)C(C)(C)[C@@H]5CC[C@]43C)[C@@H]2C1` [OA, 3β-hydroxyolean-12-en-28-oic acid, reference compound], the IC50 in the assay on L02, in the assay on Bel-7402, in the assay with HepG2 and with HSCs [1] was greater than 50 µM each time. In assay [2], the “activity of ALT in serum” value is listed as “reduced to some extent”. The “activity of AST in serum” value in assay [2] was “reduced to some extent”.
Take `CC1(C)CCC2(C(=O)O)CCC3(C)C(=CCC4C5(C)CCC(OC(=O)C6CCCN6)C(C)(C)C5CCC43C)C2C1` (centres unmarked) [3c]: the 50% inhibitory concentration (IC50) with L02 was 10.1 ± 0.56 µM; in the assay with Bel-7402 it was 10.5 ± 1.49 µM; with HepG2, 11.1 ± 0.63 µM; in the assay on HSCs [1], 15.6 ± 2.31 µM.
As to `CC(C)C(N)C(=O)OC1CCC2(C)C(CCC3(C)C2CC=C2C4CC(C)(C)CCC4(C(=O)O)CCC23C)C1(C)C` (centres unmarked) [3f], the IC50 in the assay on L02 was 15.2 ± 1.2 µM; in the assay on Bel-7402, greater than 25 µM; in the assay on HepG2, 18.6 ± 2.65 µM; in the assay on HSCs [1], 19.6 ± 3.2 µM.
For the molecule `CNCC(=O)OC1CCC2(C)C(CCC3(C)C2CC=C2C4CC(C)(C)CCC4(C(=O)O)CCC23C)C1(C)C` (centres unmarked) [3i], the half-maximal inhibitory concentration (IC50) was greater than 50 µM in the assay with L02, 11.8 ± 0.83 µM with Bel-7402, greater than 25 µM with HepG2 and 7.3 ± 1.58 µM in the assay on HSCs [1].
As for `CC1(C)CCC2(C(=O)O)CCC3(C)C(=CCC4C5(C)CCC(OC(=O)C(N)CCCCN)C(C)(C)C5CCC43C)C2C1` (centres unmarked) [3g], the IC50 in the assay on L02 amounted to 12.3 ± 2.34 µM; in the assay with Bel-7402, 4.7 ± 0.75 µM; with HepG2, 3.67 ± 0.61 µM; in the assay with HSCs [1], 3.46 ± 1.16 µM. Moreover, the “apoptotic morphological changes of HSCs, Giemsa staining” value in the assay with HSCs [3] is “evident nuclear fragmentation, chromatin condensation, and margination in a dose-dependent manner”. The “nuclear changes of HSCs, DAPI staining” value in the assay on HSCs [3] is “nuclear condensation and fragmentation, as well as the formation of apoptotic bodies with irregular shape”. The “percentage (Q2 + Q4) of apoptotic HSCs” value with HSCs [4] (1.5 µM) amounted to 29.4%; in the assay on HSCs [4] (3.0 µM), 50.5%; in the assay with HSCs [4] (6.0 µM) it was 76.5%. In addition, in the assay with HSCs [5], the “change of intracellular-free Ca2+ fluorescence with concentration” value was “increased dramatically”. Also, in the assay with HSCs [6], the “change of Rh123 mean fluorescent intensity (MFI) with concentration” value is on record as “decreased with the administration of higher concentrations”. In addition, the “liver morphological observation by HE staining” value in assay [2] was “more pathological changes were relieved in balloon-like hepatocyte edema and interstitial inflammatory cell infiltration than in OA”. Moreover, the “activity of ALT in serum” value in assay [2] is listed as “remarkably closer to control”. Moreover, the “activity of AST in serum” value in [2] is listed as “remarkably closer to control”.
On to `CCC(C)C(N)C(=O)OC1CCC2(C)C(CCC3(C)C2CC=C2C4CC(C)(C)CCC4(C(=O)O)CCC23C)C1(C)C` (centres unmarked) [3e], for which the half-maximal inhibitory concentration (IC50) in the assay on L02 is greater than 25 µM; in the assay with Bel-7402, 18.7 ± 1.63 µM; with HepG2 it was 18 ± 1.78 µM; in the assay with HSCs [1], 24.5 ± 1.99 µM.
`CC1(C)CCC2(C(=O)O)CCC3(C)C(=CCC4C5(C)CCC(OC(=O)C6CCC(=O)N6)C(C)(C)C5CCC43C)C2C1` (centres unmarked) [3j]: the IC50 in the assay on L02 is greater than 50 µM; in the assay on Bel-7402, greater than 25 µM; with HepG2, 23.9 ± 2.65 µM; in the assay with HSCs [1], greater than 25 µM.
On to `CC(N)C(=O)OC1CCC2(C)C(CCC3(C)C2CC=C2C4CC(C)(C)CCC4(C(=O)O)CCC23C)C1(C)C` (centres unmarked) [3b], for which the IC50 was greater than 50 µM in the assay on L02, greater than 25 µM with Bel-7402, 12.2 ± 1.48 µM with HepG2 and 9.92 ± 1.05 µM in the assay with HSCs [1].
Turning to `CC1(C)CCC2(C(=O)O)CCC3(C)C(=CCC4C5(C)CCC(OC(=O)C(N)Cc6ccccc6)C(C)(C)C5CCC43C)C2C1` (centres unmarked) [3h], the half-inhibitory concentration (IC50) in the assay on L02 was greater than 50 µM; with Bel-7402, 8.5 ± 1.65 µM; with HepG2, 11.5 ± 0.94 µM; with HSCs [1], 14.8 ± 0.8 µM.
Consider `CC(C)CC(N)C(=O)OC1CCC2(C)C(CCC3(C)C2CC=C2C4CC(C)(C)CCC4(C(=O)O)CCC23C)C1(C)C` (centres unmarked) [3d], for which the IC50 in the assay on L02, with Bel-7402, in the assay with HepG2 and in the assay with HSCs [1] was greater than 25 µM each time.
Take `CC1(C)CCC2(C(=O)O)CCC3(C)C(=CCC4C5(C)CCC(OC(=O)CN)C(C)(C)C5CCC43C)C2C1` (centres unmarked) [3a]: the IC50 with L02 is greater than 25 µM; in the assay on Bel-7402, 12.1 ± 1.32 µM; in the assay on HepG2 it was 11.5 ± 0.95 µM; in the assay on HSCs [1], 13.6 ± 1.12 µM.
